Data reported in US20080279843A1, “Method For Improving Insulin Sensitivity By Administering an Inhibitor of Antitrypsin” (Essential SkinCare, LLC, priority 2003, published 2008).
“Also recorded” adds a separate entry of the source.

Assays:
AT activity = AT activity (Homo sapiens, UniProt P01009); settings: daily oral administration of GF at the 600 mg level; Janciauskiene and Eriksson 1994; cited from earlier work
AT = AT (Homo sapiens, UniProt P01009); experiment: Prevention of the inhibitory effect of AT on insulin-stimulated glycogen synthesis in differentiated L6 cells (Example 7); format: cell-based; settings: FIG. 5
Protocol: (§1) Rat L6 skeletal muscle cells were obtained from the American Type Culture Collection, Rockville, Md. L6 cell monolayers were induced to differentiate in Minimal Essential Medium (MEM) containing 2% (v/v) fetal bovine serum (FBS) and 1% (v/v) antibiotic/antimycotic solution. The cells were fed fresh medium every 48 hours. Myoblast differentiation, which occurred by about the 7-9th day, was monitored by phase contrast microscopy. Differentiated L6 cells are widely used models for studying glucose metabolism in the skeletal muscle. The present study was focused on these cells, because skeletal muscle accounts for about 70-80% of total blood glucose metabolism in the human body.
To examine cellular glucose uptake and metabolism, differentiated (attached) cells in 12-well plates were incubated at 37° C. in a CO2 incubator (95% air: 5% CO2) with D-[^14C]glucose (1 μCi/mL) in 2% FBS-containing medium containing 5.5 mM unlabeled glucose for 0.5-6 hours as indicated at the corresponding Figures. […] Cells were washed twice with 3 ml medium to remove traces of medium containing unincorporated radioactivity. […]
Aliquots of the upper and lower phases were taken to scintillation vials to determine the amounts of radiolabeled glucose and total lipids, respectively, by liquid scintillation counting. […] No additional radioactivity could be removed from the well by neutralized 30% KOH. […]

humans = settings: 600-1200 mg GF once daily, oral, in humans; literature studies; cited from earlier work
C57/Black female mice [1] = experiment: Glucose tolerance test with insulin and commercial AT (Example 2); format: in vivo; settings: FIG. 2; fasting (16 h) mice; insulin 0.5 I.U. 15 min before glucose 3 g/kg i.p.
Protocol: C57/Black female mice weighing 22-23 g were fasted for 16 hours. Four animals were used for each of four treatment groups. The first and fourth treatment group received intraperitoneal injections of 1500 μg commercially obtained AT. Exactly 23 hours and 45 minutes after the AT was administered to the first and fourth treatment group, the animals in the first and second treatment group received 0.5 I.U. of insulin. Exactly 15 minutes after the insulin was administered (i.e., 24 hours after the AT was administered to the first treatment group), glucose (3 g/kg) was injected intraperitoneally into the first, second and third treatment groups. Blood samples were taken from the eyes (canthus), and glucose concentrations in whole blood samples were immediately measured with the fast Glucose C test (Wako Chemicals USA Inc., Richmond, Va., USA). The data presented are the mean ±S.D. of four determinations, one with each animal.

[2] = tested on: differentiated rat L6 muscle cells; experiment: Synthesis of [14C]glycogen from radiolabeled glucose; format: cell-based; settings: 500 nM insulin
Protocol: as §1
(§2) To examine cellular glucose uptake and metabolism, differentiated (attached) cells in 12-well plates were incubated at 37° C. in a CO2 incubator (95% air: 5% CO2) with D-[^14C]glucose (1 μCi/mL) in 2% FBS-containing medium containing 5.5 mM unlabeled glucose for 0.5-6 hours as indicated at the corresponding Figures. At the termination of incubation, the medium was removed. An aliquot of the medium was taken to determine the loss of [^14C]glucose from the medium which corresponds to its uptake by cells. Cells were washed twice with 3 ml medium to remove traces of medium containing unincorporated radioactivity. Ice-cold 99.8% methanol/0.2% water (v/v) mixture (1 ml) was then added to the monolayers and cells were extracted for 2 hours at −20° C. […] The methanol phase (1 ml) and a following 1 ml methanol wash were added to 2 ml chloroform followed by the addition of 3 ml water. Of the resulting two phases (separation was facilitated by brief centrifugation), the lower phase contained the total radiolabeled lipids, while the upper phase contained [^14C]glucose.
(§3) Aliquots of the upper and lower phases were taken to scintillation vials to determine the amounts of radiolabeled glucose and total lipids, respectively, by liquid scintillation counting. Precipitated [^14C]glycogen was suspended in 0.75 ml of 1 M NaOH and transferred to scintillation vial. This procedure was repeated with another 0.75 ml aliquot of NaOH. To neutralize the suspension, […] (approximately 150 μL) was then added to the vials, followed by the addition of 8.5 ml Ecolume (scintillation fluid). While the 1 M NaOH suspension contained some particulate material (mostly protein which was not labeled with radiolabeled glucose), no precipitate remained in the suspension after addition of Ecolume. […] No additional radioactivity could be removed from the well by neutralized 30% KOH.
In some experiments, a published procedure [Huang, D., Cheung, A. T., Parsons, J. T. and Bryer-Ash, M. “Focal adhesion kinase (FAK) regulates insulin-stimulated glycogen synthesis in hepatocytes.” J. Biol. Chem. 277, 18151-18160, (2002)] was used to determine glucose incorporation into glycogen in a method similar to the one described above. After incubations with [^14C] glucose, cells were solubilized with 20% KOH for 2 hours. Lysates were extracted with 8% […], neutralized with 2.0 M HCl, then boiled for 5 min. The total glycogen was precipitated by the addition of 80% ethanol (final concentration) for 2 hours at −20° C. followed by centrifugation at 1100×g for 10 min. This step was repeated.
After the pellets had been re-dissolved in distilled water, the samples were precipitated again using the same method described above, and yielded essentially the same results. In subsequent experiments the initial methanol precipitation method described above was used because it allowed for analysis of cellular glucose, glycogen and lipids from the same sample.
Three groups of differentiated L6 cells, incubated in 12-well plates in 2% FBS-containing medium, were treated as follows. A first control group ([…]) was untreated. A second group (▴) was treated with 500 nM insulin for 30 min. A third group (▪) was treated first with 0.4 mg/ml of AT followed by an addition of 500 nM insulin for 30 min. […]

C57/Black female mice [3] = experiment: Glucose tolerance test with insulin and purified AT (Example 3); format: in vivo; settings: for Glucose level: mice fasted 16 h, glucose 3 g/kg i.p., insulin 0.5 I.U. 15 min before glucose, purified AT 1200 μg i.p. 24 h before glucose, mean ± S.D., n=5
Protocol: C57/Black female mice weighing 23-25 g were fasted for 16 hours. Five animals were used for each of the three treatment groups. The first treatment group received intraperitoneal injections of 1200 μg purified AT, i.e. AT purified by the procedure of Example 1. Exactly 23 hours and 45 minutes after the AT was administered to the first treatment group, the animals in the first and second treatment group received 0.5 I.U. of insulin. Exactly 15 minutes after the insulin was administered (i.e., 24 hours after AT was administered to the first treatment group), glucose (3 g/kg) was injected intraperitoneally into the first, second and third treatment group. Blood samples were immediately measured with the fast Glucose C test (Wako Chemicals Inc. Richmond, Va., USA). The data presented are the mean ±S.D. of five determinations, one with each animal.

[4] = tested on: differentiated rat L6 muscle cells; experiment: Cellular uptake of D-[14C]glucose; format: cell-based; settings: FIG. 3A; 500 nM insulin; incubations for 2-6 hours
Protocol: as §1, §2, §3
Three groups of differentiated L6 cells, incubated in 12-well plates in 2% FBS-containing medium, were treated as follows. A first control group ([…]) was untreated. A second group (▴) was treated with 500 nM insulin for 30 min. A third group (▪) was treated first with 0.4 mg/ml of AT followed by an addition of 500 nM insulin for 30 min. Following the addition of D-[^14C]glucose, each group was incubated in the continuous presence of insulin and AT, as described above, for 0.5-6 hours.
Four groups of differentiated L6 cells, incubated in 12-well plates in 2% FBS-containing medium, were treated as follows. A first control group was untreated. A second group was treated with 500 nM insulin for 30 min. A third group was treated with 0.05 to 0.4 mg/ml of AT for 10 min. Finally, a fourth group was treated with 0.05 to 0.4 mg/ml of AT for 10 min followed by the addition of 500 nM insulin for 30 min. […]

Chain of AT (P01009 25-418): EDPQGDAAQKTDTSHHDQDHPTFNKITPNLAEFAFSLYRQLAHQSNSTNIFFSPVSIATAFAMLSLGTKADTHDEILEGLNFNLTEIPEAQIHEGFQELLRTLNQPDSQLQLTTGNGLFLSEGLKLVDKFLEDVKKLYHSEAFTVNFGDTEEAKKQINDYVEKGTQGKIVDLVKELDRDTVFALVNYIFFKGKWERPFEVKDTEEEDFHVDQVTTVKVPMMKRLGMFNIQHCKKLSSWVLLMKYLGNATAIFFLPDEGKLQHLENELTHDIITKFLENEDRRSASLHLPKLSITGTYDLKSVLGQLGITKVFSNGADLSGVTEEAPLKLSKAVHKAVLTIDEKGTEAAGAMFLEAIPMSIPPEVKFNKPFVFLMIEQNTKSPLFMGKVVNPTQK
Chain of AT activity (P01009 25-418): as above

Compound	Inhibition of AT activity (AT activity)	Effect of GF or LCA on the inhibitory effect of AT on insulin-stimulated glycogen synthesis (AT; 25 mM GF or 50 μM LCA added 60 min prior to AT (0.4 mg/ml), 500 nM insulin, 5 hours)	Effect of GF or LCA on glycogen synthesis in the absence of AT (AT; 25 mM GF or 50 μM LCA, without AT)	Side effects (humans)	Effect of insulin on the rise in blood glucose level after glucose (C57/Black female mice [1])	Stimulatory effect of insulin on synthesis of [14C]glycogen compared to untreated cells ([2]; FIG. 3B, incubations for 2-6 hours)	Stimulation of synthesis of [14C]glycogen by insulin ([2]; FIG. 5, 5 hours)	Glucose level (C57/Black female mice [3]; 0 min)	Glucose level (C57/Black female mice [3]; 30 min)	Glucose level (C57/Black female mice [3]; 60 min)	Glucose level (C57/Black female mice [3]; 180 min)	Glucose level (C57/Black female mice [3]; 360 min)	Effect of insulin on the rise in blood glucose level after glucose (C57/Black female mice [3]; insulin 0.5 I.U. 15 min before glucose 3 g/kg i.p.)	Stimulatory effect of insulin on uptake of D-[14C]glucose compared to untreated cells [4]
Cc1ccc(C)c(OCCCC(C)(C)C(=O)O)c1 [GF, gemfibrozil]	30-60%	AT had no such inhibitory effect; also recorded: capable of preventing the strong inhibitory effect of AT	Neither GF nor LCA had a significant effect	In none of these studies did GF exert any significant side effects	–	–	–	–	–	–	–	–	–	–
insulin [reference compound]	–	–	–	–	initially strongly inhibited the rise in blood glucose level	approximately doubled; also recorded: more than two-fold stimulatory effects	about two-fold	1.7 ± 0.2 mM	N.D.* (N.D means not detectable (below 1 mM))	2.5 ± 0.2 mM	3.0 ± 0.3 mM	3.3 ± 0.3 mM	initially strongly inhibited the rise in blood glucose level	approximately doubled; also recorded: more than two-fold stimulatory effects
